Legend:
CD45 = target: T1, CD45 (Homo sapiens, UniProt P08575); experiment: Inhibition constant determination, selectivity panel: CD45 (pNPP hydrolysis); format: biochemical; conditions: competitive Ki, pNPP substrate; read-out: Phosphatase Inhibition Constants (Kic) CD45
T1 construct: purchased Biomol Research Laboratories SE-135
T1 sequence (P08575 609-1306 limits assumed): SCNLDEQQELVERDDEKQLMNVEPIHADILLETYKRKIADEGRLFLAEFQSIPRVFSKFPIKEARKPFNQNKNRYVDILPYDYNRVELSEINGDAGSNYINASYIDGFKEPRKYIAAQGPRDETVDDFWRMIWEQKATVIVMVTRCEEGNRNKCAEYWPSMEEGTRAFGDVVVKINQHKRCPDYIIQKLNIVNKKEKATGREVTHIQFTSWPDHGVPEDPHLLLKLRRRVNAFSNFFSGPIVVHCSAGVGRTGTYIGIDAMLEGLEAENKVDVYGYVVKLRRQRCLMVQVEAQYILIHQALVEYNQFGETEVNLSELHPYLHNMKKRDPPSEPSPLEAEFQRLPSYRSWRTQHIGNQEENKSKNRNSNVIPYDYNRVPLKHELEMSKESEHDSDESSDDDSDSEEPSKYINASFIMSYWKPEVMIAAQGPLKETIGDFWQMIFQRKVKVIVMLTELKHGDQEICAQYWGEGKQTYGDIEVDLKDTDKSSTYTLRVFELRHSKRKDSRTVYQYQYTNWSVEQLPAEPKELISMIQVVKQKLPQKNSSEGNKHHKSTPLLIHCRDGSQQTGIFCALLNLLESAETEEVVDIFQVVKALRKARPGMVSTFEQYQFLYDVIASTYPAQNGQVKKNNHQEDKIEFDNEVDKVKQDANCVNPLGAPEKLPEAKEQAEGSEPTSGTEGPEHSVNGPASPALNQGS
Protocol: (§1) Protein tyrosine phosphatase 1B activity was determined by measuring the rate of hydrolysis of a surrogate substrate, p-nitrophenyl phosphate (aka pNPP, C1907 Sigma, St. Louis, Mo.). The assay was carried out at room temperature in 96 well polypropylene or polyethylene plates in a total volume of 100 μL per well. Appropriate dilutions of the compounds were made in DMSO and then diluted ten fold with water. […] The reaction was initiated by adding 50 μL of diluted PTP1B diluted in 2× assay buffer containing 50 mM HEPES (pH=7.5), 300 mM NaCl and 0.2 mg/mL BSA. The phosphatase activity results in the formation of the colored product p-nitrophenol (pNP) which was continuously monitored at 405 nm every 30 seconds for 15 minutes using an appropriate plate reader. The absorbance at 405 nm was converted to nanomoles of pNP using a standard curve and the initial rate of pNP formation was calculated. […] The ratio of the apparent Km/Vmax vs. inhibitor concentration was plotted and the competitive Ki was calculated by linear regression to be the negative x-intercept. The uncompetitve Ki was similarly calculated from the x-intercept of the plot of the reciprocal of the apparent Vmax versus the inhibitor concentration. […]
(§2) The Kic and Kiu values are calculated as described for PTP1B. […]

[1] = target: T2, CDC25c (fusion with glutathione-S-transferase) (Homo sapiens, UniProt P30307); experiment: Inhibition constant determination, selectivity panel: Cdc25c (pNPP hydrolysis); format: biochemical; conditions: competitive Ki, pNPP substrate; read-out: Phosphatase Inhibition Constants (Kic) Cdc25c
T2 construct: GST (glutathione-S-transferase); made in house; host or cells: E. coli
T2 sequence (P30307 1-473): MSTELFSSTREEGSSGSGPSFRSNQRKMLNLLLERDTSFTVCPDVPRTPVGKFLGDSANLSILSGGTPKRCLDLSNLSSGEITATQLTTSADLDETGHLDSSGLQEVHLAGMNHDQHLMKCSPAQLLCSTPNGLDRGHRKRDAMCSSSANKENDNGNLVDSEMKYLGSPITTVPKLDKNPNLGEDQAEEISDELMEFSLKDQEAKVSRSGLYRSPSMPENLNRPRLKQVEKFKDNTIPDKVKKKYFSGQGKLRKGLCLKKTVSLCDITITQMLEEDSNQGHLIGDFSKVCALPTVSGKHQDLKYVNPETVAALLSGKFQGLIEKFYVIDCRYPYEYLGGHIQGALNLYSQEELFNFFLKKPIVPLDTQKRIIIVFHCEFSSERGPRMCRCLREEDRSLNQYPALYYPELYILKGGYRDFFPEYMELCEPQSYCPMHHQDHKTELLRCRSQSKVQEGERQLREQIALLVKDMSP
Protocol: (§3) Protein tyrosine phosphatase 1B activity was determined by measuring the rate of hydrolysis of a surrogate substrate, p-nitrophenyl phosphate (aka pNPP, C1907 Sigma, St. Louis, Mo.). The assay was carried out at room temperature in 96 well polypropylene or polyethylene plates in a total volume of 100 μL per well. Appropriate dilutions of the compounds were made in DMSO and then diluted ten fold with water. […] The reaction was initiated by adding 50 μL of diluted PTP1B diluted in 2× assay buffer containing 50 mM HEPES (pH=7.5), 300 mM NaCl and 0.2 mg/mL BSA. The phosphatase activity results in the formation of the colored product p-nitrophenol (pNP) which was continuously monitored at 405 nm every 30 seconds for 15 minutes using an appropriate plate reader. The absorbance at 405 nm was converted to nanomoles of pNP using a standard curve and the initial rate of pNP formation was calculated. […] The ratio of the apparent Km/Vmax vs. inhibitor concentration was plotted and the competitive Ki was calculated by linear regression to be the negative x-intercept. The uncompetitve Ki was similarly calculated from the x-intercept of the plot of the reciprocal of the apparent Vmax versus the inhibitor concentration.
as §2

LAR = target: T3, LAR (Homo sapiens, UniProt P10586); experiment: Inhibition constant determination, selectivity panel: LAR (pNPP hydrolysis); format: biochemical; conditions: competitive Ki, pNPP substrate; read-out: Phosphatase Inhibition Constants (Kic) LAR
T3 construct: purchased New England Biolabs P0750L
T3 sequence (P10586 1301-1639 limits assumed): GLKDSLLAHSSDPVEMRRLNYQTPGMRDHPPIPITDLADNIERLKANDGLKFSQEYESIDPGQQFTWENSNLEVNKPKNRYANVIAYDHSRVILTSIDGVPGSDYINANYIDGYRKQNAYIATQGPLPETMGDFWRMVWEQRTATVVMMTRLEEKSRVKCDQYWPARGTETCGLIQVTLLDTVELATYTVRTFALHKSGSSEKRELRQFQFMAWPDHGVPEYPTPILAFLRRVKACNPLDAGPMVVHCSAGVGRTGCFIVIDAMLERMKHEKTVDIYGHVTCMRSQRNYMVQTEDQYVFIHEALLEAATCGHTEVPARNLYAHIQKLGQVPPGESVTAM
Protocol: as §1, §2

SHP-2 (full length) = target: T4, SHP-2 (full length) (Homo sapiens, UniProt Q06124); experiment: Inhibition constant determination, selectivity panel: SHP-2 (pNPP hydrolysis); format: biochemical; conditions: competitive Ki, pNPP substrate; read-out: Phosphatase Inhibition Constants (Kic) SHP-2
T4 construct: SHP-2 (full length) was expressed in from E. coli; made in house; host or cells: E. coli
T4 sequence (Q06124 1-593): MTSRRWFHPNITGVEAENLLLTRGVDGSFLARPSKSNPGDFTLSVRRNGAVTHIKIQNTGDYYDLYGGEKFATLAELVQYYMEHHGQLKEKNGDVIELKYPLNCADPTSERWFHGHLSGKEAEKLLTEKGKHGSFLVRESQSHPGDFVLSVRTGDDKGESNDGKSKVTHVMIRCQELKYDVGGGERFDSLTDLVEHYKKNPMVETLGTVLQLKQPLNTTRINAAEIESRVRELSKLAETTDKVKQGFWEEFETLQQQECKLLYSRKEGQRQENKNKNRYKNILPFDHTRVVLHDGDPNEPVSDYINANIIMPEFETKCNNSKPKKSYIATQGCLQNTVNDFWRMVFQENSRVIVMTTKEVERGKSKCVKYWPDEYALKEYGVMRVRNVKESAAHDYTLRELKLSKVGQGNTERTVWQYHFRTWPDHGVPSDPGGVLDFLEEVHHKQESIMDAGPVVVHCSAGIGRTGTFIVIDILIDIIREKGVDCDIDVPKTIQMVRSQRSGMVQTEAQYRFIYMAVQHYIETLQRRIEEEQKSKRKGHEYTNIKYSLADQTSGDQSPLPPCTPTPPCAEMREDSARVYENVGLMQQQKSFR
Protocol: as §3, §2

PP2B = target: T5, PP2B (Bos taurus, UniProt P48452); experiment: Inhibition constant determination, selectivity panel: PP2B (pNPP hydrolysis); format: biochemical, Bovine; conditions: competitive Ki, pNPP substrate, TRIS-HCl pH 8.6 buffer; read-out: Phosphatase Inhibition Constants (Kic) PP2B
T5 construct: purchased Sigma C1907
Protocol: as §1, §2

TC-PTP = target: T6, TC-PTP (Homo sapiens, UniProt P17706); experiment: Inhibition constant determination, selectivity panel: TCPTP (pNPP hydrolysis); format: biochemical; conditions: for Ki: competitive Ki, pNPP substrate, +/− S.D., read-out: Phosphatase Inhibition Constants (Kic) TC-PTP; for selective for PTP1B over TCPTP: from Kic values of Table 1
T6 construct: chromatography of TCPTP (amino acid residues 1-283) was on Q-Sepharose-FF
T6 sequence (P17706 1-283): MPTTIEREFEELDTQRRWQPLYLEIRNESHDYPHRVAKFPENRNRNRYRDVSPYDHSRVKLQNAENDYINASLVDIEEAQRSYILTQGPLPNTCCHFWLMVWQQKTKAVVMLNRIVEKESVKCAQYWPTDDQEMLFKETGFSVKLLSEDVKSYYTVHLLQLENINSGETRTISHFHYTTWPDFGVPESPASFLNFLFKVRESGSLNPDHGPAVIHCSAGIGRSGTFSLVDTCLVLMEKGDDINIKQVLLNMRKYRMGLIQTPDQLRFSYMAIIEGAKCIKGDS
Protocol: Protein tyrosine phosphatase 1B activity was determined by measuring the rate of hydrolysis of a surrogate substrate, p-nitrophenyl phosphate (aka pNPP, C1907 Sigma, St. Louis, Mo.). The assay was carried out at room temperature in 96 well polypropylene or polyethylene plates in a total volume of 100 μL per well. Appropriate dilutions of the compounds were made in DMSO and then diluted ten fold with water. […] The reaction was initiated by adding 50 μL of diluted PTP1B diluted in 2× assay buffer containing 50 mM HEPES (pH=7.5), 300 mM NaCl and 0.2 mg/mL BSA. The phosphatase activity results in the formation of the colored product p-nitrophenol (pNP) which was continuously monitored at 405 nm every 30 seconds for 15 minutes using an appropriate plate reader. The absorbance at 405 nm was converted to nanomoles of pNP using a standard curve and the initial rate of pNP formation was calculated. For each concentration of test compound (inhibitor) or DMSO control, the initial rates are used to fit the rectangular hyperbola of Michaelis-Menten by non-linear regression analysis (GraphPad Software Prism 3.0). The ratio of the apparent Km/Vmax vs. inhibitor concentration was plotted and the competitive Ki was calculated by linear regression to be the negative x-intercept. The uncompetitve Ki was similarly calculated from the x-intercept of the plot of the reciprocal of the apparent Vmax versus the inhibitor concentration.
TCPTP used was either obtained commercially (catalog#752L New England Biolabs, 32 Tozer Rd, Beverly, Mass.) or as described for PTP1B. The purification of TCPTP differed from the purification of PTP1b in that chromatography of TCPTP (amino acid residues 1-283) was on Q-Sepharose-FF (Amersham Pharmacia Biotech) in 50 mM TRIS-HC1, pH 7.5, 2 mM DTT, 10% (v/v) glycerol, and was eluted with a 3 CV gradient of 0-300 mM NaCl in the same buffer. Fractions which contained TCPTP were selected and pooled based on SDS-PAGE. They were dialyzed versus 40 mM sodium phosphate, pH 7.5, 1 M ammonium sulfate, 10% (v/v) glycerol, 2 mM DTT, 1 mM sodium azide, applied to Phenyl Sepharose FF (Amersham Pharmacia Biotech), washed with 2.5 CV of the same buffer, and eluted with a 7 CV gradient of 1M to 0M NaCl in the same buffer. Fractions were assayed, pooled, frozen and stored as described for PTP1B.
The Kic and Kiu values are calculated as described for PTP1B. The assays were performed as described for PTP-1B except for the following changes. All the phosphatases except PP2B use the same 2× assay buffer as PTP1B. […] The concentrations of pNPP present in 40 ul were the same for TCPTP, CD45, LAR and PTP1B.

[2] = target: T7, protein tyrosine phosphatase 1B (PTP1B, amino acid residues 1-321) (Homo sapiens, UniProt P18031); experiment: Inhibition constant determination for protein tyrosine phosphatase 1B (pNPP hydrolysis); format: biochemical; conditions: competitive Ki, pNPP substrate, +/− S.D.; read-out: Phosphatase Inhibition Constants (Kic) PTP1B
T7 construct: PTP1B, amino acid residues 1-321; made in house; host or cells: E. coli BL21 (DE3)
T7 sequence (P18031 1-321): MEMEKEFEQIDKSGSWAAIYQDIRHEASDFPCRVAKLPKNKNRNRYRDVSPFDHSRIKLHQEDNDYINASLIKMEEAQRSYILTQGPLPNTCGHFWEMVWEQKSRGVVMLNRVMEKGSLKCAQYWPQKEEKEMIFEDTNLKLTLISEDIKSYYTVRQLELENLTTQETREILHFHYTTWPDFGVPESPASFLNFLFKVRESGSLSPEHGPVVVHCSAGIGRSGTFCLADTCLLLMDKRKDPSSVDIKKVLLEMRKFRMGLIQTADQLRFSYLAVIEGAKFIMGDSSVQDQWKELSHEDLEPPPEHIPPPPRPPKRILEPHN
Protocol: Protein tyrosine phosphatase 1B activity was determined by measuring the rate of hydrolysis of a surrogate substrate, p-nitrophenyl phosphate (aka pNPP, C1907 Sigma, St. Louis, Mo.). The assay was carried out at room temperature in 96 well polypropylene or polyethylene plates in a total volume of 100 μL per well. Appropriate dilutions of the compounds were made in DMSO and then diluted ten fold with water. […] The reaction was initiated by adding 50 μL of diluted PTP1B diluted in 2× assay buffer containing 50 mM HEPES (pH=7.5), 300 mM NaCl and 0.2 mg/mL BSA. […] For each concentration of test compound (inhibitor) or DMSO control, the initial rates are used to fit the rectangular hyperbola of Michaelis-Menten by non-linear regression analysis (GraphPad Software Prism 3.0). The ratio of the apparent Km/Vmax vs. inhibitor concentration was plotted and the competitive Ki was calculated by linear regression to be the negative x-intercept. The uncompetitve Ki was similarly calculated from the x-intercept of the plot of the reciprocal of the apparent Vmax versus the inhibitor concentration.

T5 sequence (P63099 2-170 partner limits assumed, other chains not shown): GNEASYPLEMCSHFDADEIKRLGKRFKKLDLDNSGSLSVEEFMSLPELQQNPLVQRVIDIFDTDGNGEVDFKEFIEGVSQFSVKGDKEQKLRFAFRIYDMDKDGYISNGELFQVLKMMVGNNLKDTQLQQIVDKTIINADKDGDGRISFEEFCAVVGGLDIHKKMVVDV

SMILES | Ki (CD45) [µM] | Ki [1] [µM] | Ki (LAR) [µM] | Ki (SHP-2 (full length)) [µM] | Ki (PP2B) [µM] | Ki (TC-PTP) [µM] | Ki [2] [µM] | selective for PTP1B over TCPTP (TC-PTP)
CCc1cc(C[C@H](NC(C)=O)C(=O)NCCCCC(=O)N[C@@H](CCSC)C(=O)O)ccc1N(C(=O)C(=O)O)c1ccccc1C(=O)O [Example 3, N-{5-[(N-acetyl-4-[(carboxycarbonyl)(2-carboxyphenyl)amino]-3-ethylphenylalanyl)amino]pentanoyl}-L-methionine] | > 200 | > 200 | 5 | 17 | > 200 |  |  | 
CCc1cc(C[C@H](NC(C)=O)C(=O)NCCCCOc2cccc(O)c2C(=O)OC)ccc1N(C(=O)C(=O)O)c1ccccc1C(=O)O [Example 13, Methyl 2-{4-[(N-acetyl-4-[(carboxycarbonyl)(2-carboxyphenyl)amino]-3-ethylphenylalanyl)amino]butoxy}-6-hydroxybenzoate] | > 200 | > 200 | 4.6 | 14.2 | > 200 | 0.57 |  | 
CCC(CN(C(=O)C(=O)O)c1ccc(C[C@H](NC(=O)OC(C)(C)C)C(=O)NCCCCOc2cccc(O)c2C(=O)OC)cc1)C(=O)O (stereo partly drawn) [Example 36, Methyl 2-(4-{[N-(tert-butoxycarbonyl)-4-[(2-carboxybutyl)(carboxycarbonyl)amino]phenylalanyl]amino}butoxy)-6-hydroxybenzoate] |  |  |  |  |  | 7.9 | 1.3 | at least 6 fold
COC(=O)c1c(O)cccc1OCCCCNC(=O)[C@H](Cc1ccc(NC(=O)C(=O)O)cc1)NC(=O)OC(C)(C)C [Example 45, Methyl 2-(4-{[4-(carboxycarbonyl)amino-N-(tert-butoxycarbonyl)phenylalanyl]amino}butoxy)-6-hydroxybenzoate] |  |  |  |  |  | 141 |  | 
COC(=O)c1c(O)cccc1OCCCCNC(=O)CCc1ccc(NC(=O)C(=O)O)c(C(=O)O)c1 [Example 52, 2-[(carboxycarbonyl)amino]-5-[3-({4-[3-hydroxy-2-(methoxycarbonyl)phenoxy]butyl}amino)-3-oxopropyl]benzoic acid] |  |  |  |  |  | 38.2 | 2.7 | at least 14 fold

— patent US20020169157A1, “Selective protein tyrosine phosphatatase inhibitors” (priority 2000, published 2002)
